Assay [1] relates to prostatic urethral contractions induced by noradrenaline. To be noted: dog, i.v.; data from Leonardi et al. 1997; cited from earlier work.
Assay [2] relates to diastolic blood pressure. To be noted: dog, i.v.; data from Leonardi et al. 1997; cited from earlier work.
Assay [3] has as its target T1, recombinant α1d-adrenoceptor (Homo sapiens, UniProt P25100).
T1 construct: expressed in transfected cells
T1 sequence (P25100 1-572): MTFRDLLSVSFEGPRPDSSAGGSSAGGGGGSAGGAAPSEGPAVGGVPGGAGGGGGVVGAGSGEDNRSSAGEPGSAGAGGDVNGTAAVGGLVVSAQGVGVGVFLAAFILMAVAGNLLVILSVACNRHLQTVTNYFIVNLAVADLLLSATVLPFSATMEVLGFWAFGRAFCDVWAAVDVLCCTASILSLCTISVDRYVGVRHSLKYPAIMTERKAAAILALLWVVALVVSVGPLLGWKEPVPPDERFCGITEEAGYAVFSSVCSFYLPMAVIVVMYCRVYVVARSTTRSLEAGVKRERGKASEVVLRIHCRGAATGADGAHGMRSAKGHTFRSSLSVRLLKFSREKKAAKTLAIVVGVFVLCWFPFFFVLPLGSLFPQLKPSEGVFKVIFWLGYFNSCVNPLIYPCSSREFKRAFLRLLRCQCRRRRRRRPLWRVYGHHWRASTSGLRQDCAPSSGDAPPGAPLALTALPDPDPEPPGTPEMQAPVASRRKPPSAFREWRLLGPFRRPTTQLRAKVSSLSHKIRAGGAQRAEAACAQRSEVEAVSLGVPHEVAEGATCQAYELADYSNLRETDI
The experiment in a line: Radioligand binding ([3H]prazosin) to cloned α1d adrenoceptor. To be noted: read-out: Affinity (Ki) α1d. As for the experimental part:
(§1) Determination of affinity for cloned subtypes of the α1-adrenoceptor was performed in membranes from cells transfected by electroporation with DNA expressing the genes encoding each α1-adrenoceptor subtype.
(§2) Non-specific binding was determined in the presence of 10 μM phentolamine. Incubation was stopped by addition of ice-cold Tris buffer and rapid filtration through Schleicher & Schuell GF52 filters that had been pretreated with 0.2%-polyethyleneimine.
(§3) Data were expressed as mean of Ki.

Assay [4] deals with T2, recombinant α1b-adrenoceptor (Homo sapiens, UniProt P35368).
T2 construct: expressed in transfected cells
T2 sequence (P35368 1-520): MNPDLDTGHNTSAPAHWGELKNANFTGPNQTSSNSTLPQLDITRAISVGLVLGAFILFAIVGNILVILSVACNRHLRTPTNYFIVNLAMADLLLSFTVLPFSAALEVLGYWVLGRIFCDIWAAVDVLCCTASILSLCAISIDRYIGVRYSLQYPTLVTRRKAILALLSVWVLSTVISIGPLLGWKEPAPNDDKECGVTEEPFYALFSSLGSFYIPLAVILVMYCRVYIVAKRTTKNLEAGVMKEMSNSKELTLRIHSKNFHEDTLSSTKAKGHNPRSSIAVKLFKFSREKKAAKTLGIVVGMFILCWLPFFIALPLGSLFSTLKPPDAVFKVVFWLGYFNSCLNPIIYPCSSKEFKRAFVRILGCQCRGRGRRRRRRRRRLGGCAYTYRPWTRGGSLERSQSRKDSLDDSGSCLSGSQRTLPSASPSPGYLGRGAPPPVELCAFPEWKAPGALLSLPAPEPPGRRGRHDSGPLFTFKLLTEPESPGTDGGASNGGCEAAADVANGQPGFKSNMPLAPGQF
The experiment in a line: Radioligand binding ([3H]prazosin) to cloned α1b adrenoceptor. To be noted: read-out: Affinity (Ki) α1b. Here is the method: as §1, §2, §3

Assay [5] deals with prostatic urethral contractions induced by noradrenaline. The experiment in a line: Urethral contractions induced by noradrenaline injection in anaesthetized dogs after intravenous administration. The format is in vivo. To be noted: dog, i.v. Here is the method:
(§4) The experiments were performed according to the method of Imagawa et al. (J. Pharmacol. Methods, 22:103-111, 1989), with substantial modifications, as follows: adult male beagle dogs, weighing 8-10 kg, were anaesthetized with pentobarbital sodium (30 mg/kg i.v. and 2 mg/kg/h i.v.), intubated and spontaneously ventilated with room air. In order to monitor systemic blood pressure (BP), a polyethylene (PE) catheter was introduced into the aortic arch through the left femoral artery. A collateral of the left femoral vein was cannulated for infusion of anaesthetic, and the right femoral vein was cannulated for administration of compounds. For intraarterial (i.a.) injection of noradrenaline (NA), a PE catheter was introduced into the lower portion of the abdominal aorta via the right external iliac artery. Through such procedure, NA was selectively distributed to the lower urinary tract. A paramedian vertical suprapubic incision extending from the base of the pelvis to the mid-abdominal region was made and the bladder and the prostate were exposed. The bladder was manually emptied with a syringe. Prostatic urethral pressure was monitored with a Mikro-tip catheter (5F) introduced into the bladder via the external urethral meatus, and withdrawn until the pressure transducer was positioned in the prostatic region of the urethra. A ligature was secured between the neck of the bladder and urethra to isolate the response of the latter and to avoid any interaction with the bladder. Another ligature was put around the Mikro-tip catheter at the external meatus, to secure the catheter itself.
(§5) After a stabilizing period following the surgical procedure (30 minutes), in which arterial and prostatic urethral pressures were continuously monitored as basal values, i.a. administration of NA was made at intervals of 20 minutes.
(§6) The NA doses were chosen to produce an increase of at least 100% in urethral pressure. The test compounds were administered intravenously in a cumulative manner with intervals of 15-20 minutes between administrations. […]

Assay [6] deals with T3, recombinant α1a-adrenoceptor (Homo sapiens, UniProt P35348).
T3 construct: expressed in transfected cells
T3 sequence (P35348 1-466): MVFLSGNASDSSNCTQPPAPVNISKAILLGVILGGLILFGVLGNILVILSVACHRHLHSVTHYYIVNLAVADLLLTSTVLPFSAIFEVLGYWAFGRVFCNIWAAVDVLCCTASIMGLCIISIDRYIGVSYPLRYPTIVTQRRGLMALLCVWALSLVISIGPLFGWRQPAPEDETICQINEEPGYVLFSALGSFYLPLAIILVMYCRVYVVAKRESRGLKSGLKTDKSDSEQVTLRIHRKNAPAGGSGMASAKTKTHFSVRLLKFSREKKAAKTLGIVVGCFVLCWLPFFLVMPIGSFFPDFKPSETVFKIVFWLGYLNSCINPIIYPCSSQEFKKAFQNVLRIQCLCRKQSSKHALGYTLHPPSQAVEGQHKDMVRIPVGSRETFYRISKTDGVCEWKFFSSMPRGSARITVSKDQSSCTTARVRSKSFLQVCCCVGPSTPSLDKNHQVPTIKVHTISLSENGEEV
The assay can be described thus: Radioligand binding ([3H]prazosin) to cloned α1a adrenoceptor. Conditions: read-out: Affinity (Ki) α1a. Here is the method:
as §1, §2, §3

Assay [7] has as its system diastolic blood pressure. The assay can be described thus: Blood pressure in anaesthetized dogs after intravenous administration. The format is in vivo. To be noted: dog, i.v. Here is the method:
as §4, §5, §6

Another assay has as its target T4, α1L adrenoceptor (Oryctolagus cuniculus, UniProt O02824).
T4 sequence (O02824 1-466): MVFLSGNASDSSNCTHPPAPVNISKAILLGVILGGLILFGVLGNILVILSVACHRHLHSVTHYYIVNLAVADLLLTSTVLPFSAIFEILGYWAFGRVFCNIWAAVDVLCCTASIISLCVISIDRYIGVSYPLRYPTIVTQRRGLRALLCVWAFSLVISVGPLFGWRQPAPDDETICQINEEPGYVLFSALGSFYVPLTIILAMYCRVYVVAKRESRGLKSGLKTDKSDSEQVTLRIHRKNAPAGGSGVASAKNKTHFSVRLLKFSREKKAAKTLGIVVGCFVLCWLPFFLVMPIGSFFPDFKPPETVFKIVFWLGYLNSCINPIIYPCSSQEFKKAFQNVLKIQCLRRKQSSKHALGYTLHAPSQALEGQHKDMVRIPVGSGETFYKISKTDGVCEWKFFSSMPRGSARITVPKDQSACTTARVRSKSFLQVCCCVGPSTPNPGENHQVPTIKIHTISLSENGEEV
The experiment in a line: Functional antagonism of noradrenaline-induced contractions of rabbit aorta pretreated with chloroethylclonidine. It counts as biochemical. Conditions: NA-induced contractions. As for the experimental part: Adult male New Zealand rabbits were sacrificed by cervical dislocation. The aorta was removed, placed in Krebs-Henseleit buffer and dissected free of adhering tissue. […] Desmethylimipramine (0.1 μM) and corticosterone (1 μM) to block neuronal and extraneuronal uptake of NA, (±)-propranol (1 μM) to block β adrenoceptors and yohimbine (0.1 μM) to block α2 adrenoceptors were added to the buffer.
The preparations were equilibrated for 60 minutes and then primed every 30 minutes with 10 μM NA for three times. The aortic rings were then incubated with the alkylating agent chloroethylclonidine (50 μM) for 30 minutes and then washed extensively three times, over a 30 min period before constructing the NA-concentration/response curve. Following washing, tissue was re-equilibrated for 45 min. Test drug was added and after 30 minutes, a second cumulative-NA-concentration/response curve was constructed. Each antagonist concentration was tested using 2-3 aortic rings from different rabbits.
Dose ratios (i.e., the ratio between the concentrations of noradrenaline required to produce half-maximal response in the presence and in the absence of the test antagonist) were calculated at each concentration of the compounds. The logarithm of these dose ratio −1 was plotted against the logarithm of the compound concentrations (Schild plot) to evaluate the affinity constant Kb.
When only one or two concentrations of the test compounds were utilised, the apparent Kb value was calculated using the formula: Kb=[B]/(DOSE RATIO-1), where B is the antagonist concentration.

Assay [8] concerns the target T5, human 5-HT1A-serotoninergic receptor (Homo sapiens, UniProt P08908).
T5 construct: expressed in transfected cells; host or cells: HeLa
T5 sequence (P08908 1-422): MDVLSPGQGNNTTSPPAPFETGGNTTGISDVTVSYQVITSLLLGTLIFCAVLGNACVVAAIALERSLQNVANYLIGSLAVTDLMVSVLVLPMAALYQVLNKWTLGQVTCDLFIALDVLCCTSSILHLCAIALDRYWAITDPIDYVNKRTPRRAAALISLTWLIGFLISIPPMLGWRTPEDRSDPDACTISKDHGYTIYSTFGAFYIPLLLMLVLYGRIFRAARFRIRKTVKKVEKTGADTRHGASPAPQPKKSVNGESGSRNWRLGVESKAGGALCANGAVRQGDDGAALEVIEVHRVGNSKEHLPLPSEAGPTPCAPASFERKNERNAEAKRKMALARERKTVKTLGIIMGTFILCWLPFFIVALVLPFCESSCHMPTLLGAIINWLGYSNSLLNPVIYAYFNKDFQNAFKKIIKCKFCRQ
The experiment in a line: Radioligand binding ([3H]8-OH-DPAT) to cloned 5-HT1A receptor in HeLa cell membranes. Conditions: read-out: Affinity (Ki) 5-HT1A. Here is the method: HeLa cells were grown as monolayers in Dulbecco's modified Eagle's medium (DMEM), supplemented with 10% fetal calf serum and gentamicin (100 μg/mL), at 37° C. in 5% CO2. The cells were detached from the growth flask at 95% confluence by a cell scraper and were lysed in a buffer containing ice cold 5 mM Tris, 5 mM EDTA (pH 7.4). The homogenates were centrifuged at 40,000×g for 20 minutes and the membranes were resuspended in a small volume of ice-cold buffer containing 5 mM Tris and 5 mM, EDTA (pH 7.4), and immediately frozen and stored at −70° C. until use.
Non-specific binding was determined in the presence of 10 μM 5-HT. Incubation was stopped by addition of ice-cold Tris buffer and rapid filtration through Schleicher & Schuell GF52 filters that had been pretreated with 0.2%-polyethyleneimine.
as §3

The Ki is the dissociation constant of the complex between target and ligand, obtained from inhibition or displacement.

The structures appear in SMILES notation. Read-outs that look alike come from different tables or passages of the source.

Turning to `COc1ccccc1N1CCN(CCCNC(=O)c2cccc3c(=O)c(C)c(-c4ccccc4)oc23)CC1` [Compound A], the “UC ID50 NA (dose inhibiting by 50% the urethral contractions induced by noradrenaline)” value in assay [1] is 2.4 µg/kg. For the same molecule, the “DBP ED25 (dose inducing a 25% decrease in diastolic blood pressure)” value in the assay with diastolic blood pressure [2] was 243 µg/kg.
As to `COc1ccc(Cl)cc1N1CCN(CCCNC(=O)c2csc3c(=O)cc(-c4ccccc4)oc23)CC1` [Example 1, N-{3-[4-(5-Chloro-2-methoxyphenyl)1-piperazinyl]propyl}-7-oxo-5-phenyl-7H-thieno[3,2-b]Pyran-3-carboxamide], the Ki in [3] turned out to be 4.12 nM; in assay [4], 2.53 nM; in assay [6] it was 0.58 nM. Moreover, in assay [5], the “UC ID50 NA (dose inhibiting by 50% the urethral contractions induced by noradrenaline)” value was 5.3 µg/kg. In the assay on diastolic blood pressure [7], the “DBP ED25 (dose inducing a 25% decrease in diastolic blood pressure)” value was found to be 280 µg/kg.
As to `O=C(NCCCN1CCN(c2ccc(F)cc2OCC(F)(F)F)CC1)c1csc2c(=O)cc(-c3ccccc3)oc12` [Example 7, N-{3-[4-[4-Fluoro-2-(2,2,2-trifluoroethoxy)phenyl]-1-piperazinyl]propyl}-7-oxo-5-phenyl-7H-thieno[3,2-b]pyran-3-carboxamide], the Ki in [3] amounted to 2.45 nM; in [4], 3.47 nM; in assay [6] it was 0.17 nM; in assay [8], 88.5 nM. In addition, the “pKb, functional affinity for the α1L adrenoceptor subtype” value at α1L adrenoceptor was 8.66.
In the same order, the values of `COc1ccccc1N1CCN(CCCNC(=O)c2csc3c(=O)cc(C(F)(F)F)oc23)CC1` [Example 4, N-{3-[4-(2-Methoxyphenyl)-1-piperazinyl]propyl}-7-oxo-5-trifluoromethyl-7H-thieno[3,2b]pyran-3-carboxamide] are 3.6 nM, 23.2 nM, 0.6 nM, 26.2 nM and 7.92.
As for `COc1ccc(OCC(F)(F)F)cc1N1CCN(CCCNC(=O)c2csc3c(=O)cc(-c4ccccc4)oc23)CC1` [Example 6, N-{3-[4-[2-Methoxy-5-(2,2,2-trifluoroethoxy)phenyl]-1-piperazinyl]propyl}-7-oxo-5-phenyl7H-thieno[3,2-b]pyran-3-carboxamide], the Ki is 48.2 nM in assay [3], 39.3 nM in assay [4], 3.19 nM in [6] and 1080 nM in [8].

Values taken from patent publication US6387909B1, “Thienopyranecarboxamide derivatives” (Recordati S.A. Chemical and Pharmaceutical Company, priority 1999, dated 2002).
